Reference: article PMC10698726 (Molecular Pharmaceutics, 2023)
Like-named read-outs stand apart in the source and are kept apart here.

T1: OCT2 (Homo sapiens, UniProt O15244)
T1 sequence (O15244 1-555): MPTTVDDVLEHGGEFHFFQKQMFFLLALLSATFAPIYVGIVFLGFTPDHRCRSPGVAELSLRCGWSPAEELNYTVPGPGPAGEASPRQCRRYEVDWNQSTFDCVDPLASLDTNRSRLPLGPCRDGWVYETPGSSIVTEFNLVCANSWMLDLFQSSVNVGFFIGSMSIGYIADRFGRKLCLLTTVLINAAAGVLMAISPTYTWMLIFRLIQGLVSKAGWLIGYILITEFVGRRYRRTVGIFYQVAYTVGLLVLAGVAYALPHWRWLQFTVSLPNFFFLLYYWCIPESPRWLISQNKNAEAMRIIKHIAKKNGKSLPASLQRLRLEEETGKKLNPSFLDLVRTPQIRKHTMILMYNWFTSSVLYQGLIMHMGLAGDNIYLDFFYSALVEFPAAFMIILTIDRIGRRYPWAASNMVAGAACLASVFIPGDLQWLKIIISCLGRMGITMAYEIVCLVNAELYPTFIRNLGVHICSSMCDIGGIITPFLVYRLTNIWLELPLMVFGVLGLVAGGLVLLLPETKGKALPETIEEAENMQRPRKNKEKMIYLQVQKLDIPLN

T2: OCT1 (Homo sapiens, UniProt O15245)
T2 sequence (O15245 1-554): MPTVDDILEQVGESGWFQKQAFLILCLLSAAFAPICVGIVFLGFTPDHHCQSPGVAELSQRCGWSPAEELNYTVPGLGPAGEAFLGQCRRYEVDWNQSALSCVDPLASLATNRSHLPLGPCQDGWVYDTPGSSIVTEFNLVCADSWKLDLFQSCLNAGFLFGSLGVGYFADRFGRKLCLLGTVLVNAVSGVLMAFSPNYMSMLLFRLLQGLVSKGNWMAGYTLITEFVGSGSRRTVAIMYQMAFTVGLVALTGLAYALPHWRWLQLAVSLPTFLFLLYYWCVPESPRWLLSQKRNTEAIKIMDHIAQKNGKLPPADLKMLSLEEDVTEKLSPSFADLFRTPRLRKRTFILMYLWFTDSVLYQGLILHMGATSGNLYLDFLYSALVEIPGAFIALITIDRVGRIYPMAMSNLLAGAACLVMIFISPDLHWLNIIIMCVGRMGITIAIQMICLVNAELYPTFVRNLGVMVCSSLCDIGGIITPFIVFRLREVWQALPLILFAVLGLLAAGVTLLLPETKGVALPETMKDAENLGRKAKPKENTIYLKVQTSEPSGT

T3: OCT3 (Homo sapiens, UniProt O75751)
T3 construct: expressed in transfected cells; host or cells: HEK293
T3 sequence (O75751 1-556): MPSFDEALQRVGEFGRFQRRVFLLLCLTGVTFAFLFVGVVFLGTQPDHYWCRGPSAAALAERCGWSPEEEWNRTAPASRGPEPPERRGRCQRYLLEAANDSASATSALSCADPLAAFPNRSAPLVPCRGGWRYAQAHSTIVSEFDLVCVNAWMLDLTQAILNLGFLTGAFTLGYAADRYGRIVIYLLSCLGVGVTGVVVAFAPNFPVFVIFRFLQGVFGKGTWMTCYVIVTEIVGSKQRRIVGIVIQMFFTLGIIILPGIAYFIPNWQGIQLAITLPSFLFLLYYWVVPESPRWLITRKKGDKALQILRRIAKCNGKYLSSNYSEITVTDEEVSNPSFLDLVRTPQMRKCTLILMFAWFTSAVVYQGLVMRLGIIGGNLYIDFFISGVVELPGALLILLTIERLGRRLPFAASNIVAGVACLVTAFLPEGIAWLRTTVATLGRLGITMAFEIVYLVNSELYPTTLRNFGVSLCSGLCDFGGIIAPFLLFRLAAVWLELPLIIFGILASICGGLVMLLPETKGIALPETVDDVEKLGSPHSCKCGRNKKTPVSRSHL

B1: OCT1 (Homo sapiens) (protein)
chain: MPTVDDILEQVGESGWFQKQAFLILCLLSAAFAPICVGIVFLGFTPDHHCQSPGVAELSQRCGWSPAEELNYTVPGLGPAGEAFLGQCRRYEVDWNQSALSCVDPLASLATNRSHLPLGPCQDGWVYDTPGSSIVTEFNLVCADSWKLDLFQSCLNAGFLFGSLGVGYFADRFGRKLCLLGTVLVNAVSGVLMAFSPNYMSMLLFRLLQGLVSKGNWMAGYTLITEFVGSGSRRTVAIMYQMAFTVGLVALTGLAYALPHWRWLQLAVSLPTFLFLLYYWCVPESPRWLLSQKRNTEAIKIMDHIAQKNGKLPPADLKMLSLEEDVTEKLSPSFADLFRTPRLRKRTFILMYLWFTDSVLYQGLILHMGATSGNLYLDFLYSALVEIPGAFIALITIDRVGRIYPMAMSNLLAGAACLVMIFISPDLHWLNIIIMCVGRMGITIAIQMICLVNAELYPTFVRNLGVMVCSSLCDIGGIITPFIVFRLREVWQALPLILFAVLGLLAAGVTLLLPETKGVALPETMKDAENLGRKAKPKENTIYLKVQTSEPSGT

Key:
OCT2 = biological target: T1, OCT2; experiment: Inhibition of model substrate uptake in OCT2-overexpressing HEK293 cells; settings: for IC50: IC50 [μM], OCT2, Table 1; for (S,S)-Ethambutol inhibition [%] / ASP+ inhibition [%] / N-Ethyllidocaine inhibition [%] / inhibition at 5 min, 20 μM: OCT2, 20 μM inhibitor, 5 min
OCT1 = biological target: T2, OCT1; experiment: Inhibition of model substrate uptake in OCT1-overexpressing HEK293 cells; type: cell-based; parameters: expressed in transfected cells; host or cells: HEK293; settings: OCT1, 20 μM inhibitor, 5 min; for inhibition at 5 min, 20 μM: human, OCT1-overexpressing HEK293 cells
Protocol: (§1) Koepsell and Gorbulev (University of Würzburg, Germany).
Fluorescence quantification was performed in technical duplicates.

[1] = oral administration, cited from earlier work
OCT3 = biological target: T3, OCT3; experiment: Inhibition of model substrate uptake in OCT3-overexpressing HEK293 cells; type: cell-based; settings: 20 μM inhibitor, 5 min
Procedure, shortened: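 IC50 values were fitted with a Hill equation from net uptake, calculated as uptake in overexpressing HEK293 cells minus empty-vector control uptake. Cells were exposed for 5 min to 2 μM model substrate alone, with 20 μM inhibitor, or with a concentration series. Uptake was quantified by ASP^+ fluorescence or LC–MS/MS after lysis in 80% acetonitrile.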

SERT = biological target: T4, SERT (Homo sapiens, UniProt P31645); experiment: Concentration-dependent MPP+ uptake, SERT-overexpressing HEK293 cells; type: in vitro ADME; settings: this study
T4 construct: expressed in transfected cells; host or cells: HEK293
Protocol: as §1
(§2) Prior to inhibition studies, the used model substrates were validated in concentration-dependent uptake experiments if no literature data were available (Table S2 and Figures S2 and S3). Thereby, we ensured that the model substrate concentration used in the subsequent inhibition experiments was sufficiently below the Km value of its uptake kinetics. […] On the day of the experiment, the cells were washed once with prewarmed to 37 °C HBSS (Thermo Fisher Scientific, Darmstadt, Germany) supplemented with 10 mM HEPES and pH adjusted to 7.4 (Sigma-Aldrich)—hereafter termed HBSS+. For concentration-dependent experiments, the cells were incubated with increasing substrate concentrations for 2 min. Uptake was terminated by adding ice-cold HBSS+. Afterward, the cells were washed twice with ice-cold HBSS+, and cell lysis was done with 80% (v/v) acetonitrile (LGC Standards, Wesel, Germany) to which an internal standard for eventual LC–MS/MS analysis had been added. Intracellularly accumulated substrates were then quantified by LC–MS/MS analysis, and calibration was performed with known concentrations of the respective substances. All uptake data were normalized to the number of seeded cells by measuring the total protein content in radioimmunoprecipitation assay buffer-lysed cells in a bicinchoninic acid assay.[29]

DAT = biological target: T5, DAT (Homo sapiens, UniProt Q01959); experiment: Concentration-dependent MPP+ uptake, DAT-overexpressing HEK293 cells; type: in vitro ADME; settings: this study
T5 construct: expressed in transfected cells; host or cells: HEK293
Protocol: as §1, §2

NET = biological target: T6, NET (Homo sapiens, UniProt P23975); experiment: Concentration-dependent MPP+ uptake, NET-overexpressing HEK293 cells; type: in vitro ADME; settings: this study
T6 construct: expressed in transfected cells; host or cells: HEK293
Protocol: as §1, §2

[2] = substrate: CCC(CO)NCCNC(CC)CO; experiment: cells, lysate or membranes named; settings: other: OCT1, 2 min uptake, this study
[3] = pH 7.4, probe (S,S)-ethambutol (2 μM), (S,S)-Ethambutol inhibition [%], 2 μM (S,S)-ethambutol
[4] = pH 7.4, probe ASP+ (2 μM), 2 μM ASP+, mean of three experiments, read-out: ASP+ inhibition [%]
[5] = pH 7.4, probe sumatriptan (2 μM), 2 μM sumatriptan, read-out: Sumatriptan inhibition [%]
[6] = amisulpride, single dose (50 mg)
[7] = HEK293, 5 min, read-out: (S)-Zolmitriptan inhibition [%], OCT3, 2 μM (S)-zolmitriptan
[8] = HEK293, 5 min, read-out: (S,S)-Ethambutol inhibition [%], OCT3, 2 μM (S,S)-ethambutol
[9] = HEK293, OCT3, 2 μM ASP+, read-out: ASP+ inhibition [%]
[10] = human, OCT2-overexpressing HEK293 cells, pH 7.4, probe (S,S)-ethambutol (2 μM), (S,S)-Ethambutol inhibition [%], 2 μM (S,S)-ethambutol
[11] = human, OCT2-overexpressing HEK293 cells, pH 7.4, probe ASP+ (2 μM), ASP+ inhibition [%], 2 μM ASP+
[12] = human, OCT2-overexpressing HEK293 cells, pH 7.4, probe N-ethyllidocaine (2 μM), N-Ethyllidocaine inhibition [%], 2 μM N-ethyllidocaine
[13] = citalopram, multiple doses (40 mg, once daily for 21 d)

T4 sequence (P31645 whole entry): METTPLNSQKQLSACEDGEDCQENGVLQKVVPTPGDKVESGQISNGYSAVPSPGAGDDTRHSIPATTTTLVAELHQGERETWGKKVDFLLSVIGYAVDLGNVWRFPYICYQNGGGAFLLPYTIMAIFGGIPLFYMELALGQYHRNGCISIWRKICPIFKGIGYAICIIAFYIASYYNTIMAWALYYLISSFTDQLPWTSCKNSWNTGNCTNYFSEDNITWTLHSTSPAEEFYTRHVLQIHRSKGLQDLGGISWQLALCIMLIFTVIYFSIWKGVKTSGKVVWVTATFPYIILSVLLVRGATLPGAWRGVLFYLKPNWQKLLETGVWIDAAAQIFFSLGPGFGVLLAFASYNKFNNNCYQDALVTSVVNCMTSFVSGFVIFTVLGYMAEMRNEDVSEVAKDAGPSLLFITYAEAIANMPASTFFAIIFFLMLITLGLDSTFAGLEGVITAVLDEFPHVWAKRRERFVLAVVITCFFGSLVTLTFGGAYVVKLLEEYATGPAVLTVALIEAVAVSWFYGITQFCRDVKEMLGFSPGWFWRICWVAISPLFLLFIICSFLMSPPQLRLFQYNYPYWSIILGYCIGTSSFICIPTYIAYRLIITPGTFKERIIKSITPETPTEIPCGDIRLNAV
T5 sequence (Q01959 whole entry): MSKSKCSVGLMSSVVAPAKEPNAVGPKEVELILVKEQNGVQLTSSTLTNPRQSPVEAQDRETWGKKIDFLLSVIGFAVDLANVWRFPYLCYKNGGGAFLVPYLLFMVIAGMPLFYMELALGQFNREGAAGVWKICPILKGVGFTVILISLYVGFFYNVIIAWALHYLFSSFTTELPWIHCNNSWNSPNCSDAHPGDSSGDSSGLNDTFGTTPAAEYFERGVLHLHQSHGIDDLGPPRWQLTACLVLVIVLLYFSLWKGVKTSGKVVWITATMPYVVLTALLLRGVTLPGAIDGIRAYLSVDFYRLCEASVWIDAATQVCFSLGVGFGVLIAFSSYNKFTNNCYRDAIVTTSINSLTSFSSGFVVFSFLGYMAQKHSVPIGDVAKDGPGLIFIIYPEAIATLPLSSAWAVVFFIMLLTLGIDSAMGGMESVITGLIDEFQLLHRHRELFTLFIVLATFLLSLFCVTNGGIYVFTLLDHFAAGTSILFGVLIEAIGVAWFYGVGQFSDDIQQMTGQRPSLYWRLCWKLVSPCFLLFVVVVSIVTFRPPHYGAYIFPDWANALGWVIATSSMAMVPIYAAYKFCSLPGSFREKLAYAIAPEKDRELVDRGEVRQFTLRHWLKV
T6 sequence (P23975 whole entry): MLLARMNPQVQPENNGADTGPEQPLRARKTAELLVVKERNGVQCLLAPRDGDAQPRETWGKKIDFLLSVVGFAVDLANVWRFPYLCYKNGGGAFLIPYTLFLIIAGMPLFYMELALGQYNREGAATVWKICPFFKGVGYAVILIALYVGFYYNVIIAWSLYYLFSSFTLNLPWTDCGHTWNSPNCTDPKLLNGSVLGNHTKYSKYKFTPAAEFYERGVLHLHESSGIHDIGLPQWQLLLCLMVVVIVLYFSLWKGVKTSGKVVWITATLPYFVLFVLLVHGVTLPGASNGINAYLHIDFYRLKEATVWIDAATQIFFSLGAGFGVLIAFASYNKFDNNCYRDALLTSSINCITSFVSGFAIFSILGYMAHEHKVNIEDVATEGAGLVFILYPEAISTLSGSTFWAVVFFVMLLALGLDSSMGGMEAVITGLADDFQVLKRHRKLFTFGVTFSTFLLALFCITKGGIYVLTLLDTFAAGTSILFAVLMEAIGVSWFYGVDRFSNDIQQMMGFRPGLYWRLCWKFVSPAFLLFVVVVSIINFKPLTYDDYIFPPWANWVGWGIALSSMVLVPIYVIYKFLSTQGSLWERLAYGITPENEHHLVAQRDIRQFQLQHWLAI

Row | Molecule | IC50 (OCT2) [µM] | (S,S)-Ethambutol inhibition [%] (OCT2; 2 μM (S,S)-ethambutol) | ASP+ inhibition [%] (OCT2; 2 μM ASP+) | N-Ethyllidocaine inhibition [%] (OCT2; 2 μM N-ethyllidocaine) | inhibition at 5 min, 20 μM (OCT1; [3]) [%] | inhibition at 5 min, 20 μM (OCT1; [4]) [%] | inhibition at 5 min, 20 μM (OCT1; [5]) [%] | Imax [1, 6] [µM] | inhibition at 20 µM (OCT3; [7]) [%] | inhibition at 20 µM (OCT3; [8]) [%] | inhibition at 20 µM (OCT3; [9]) [%] | inhibition at 5 min, 20 μM (OCT2; [10]) [%] | inhibition at 5 min, 20 μM (OCT2; [11]) [%] | inhibition at 5 min, 20 μM (OCT2; [12]) [%] | Imax [1, 13] [µM] | further results
1 | CCN1CCC[C@@H]1CNC(=O)c1cc(S(=O)(=O)CC)c(N)cc1OC [(R)-Amisulpride] | 9.4 | -5.7 | 65.9 | 11.3 | 57.7 | 25.2 | 29.3 | 0.158 | 56 | 81.3 | 37.9 |  |  |  |  | 
2 | CN(C)CCC[C@]1(c2ccc(F)cc2)OCc2cc(C#N)ccc21 [(R)-Citalopram] | 17.8 |  |  |  | 72.8 | 28.9 | 78 |  | 11.8 | 17.2 | 4.5 | 1.4 | 52.1 | 28.4 | 0.228 | 
3 | CCN1CCC[C@H]1CNC(=O)c1cc(S(=O)(=O)CC)c(N)cc1OC [(S)-Amisulpride] | 29.8 | -13.2 | 38.0 | 1.9 |  |  |  | 0.182 |  |  |  |  |  |  |  | selectivity ratio at 5 min (OCT2; human, OCT2-overexpressing HEK293 cells, pH 7.4): 3.2; (S,S)-Ethambutol inhibition [%] (OCT1; 2 μM (S,S)-ethambutol): 51.7%; ASP+ inhibition [%] (OCT1; 2 μM ASP+, mean of three experiments): 23.5%; Sumatriptan inhibition [%] (OCT1; 2 μM sumatriptan): 15.2%; (S)-Zolmitriptan inhibition [%] (OCT3; OCT3, 2 μM (S)-zolmitriptan): 46.0%; (S,S)-Ethambutol inhibition [%] (OCT3; OCT3, 2 μM (S,S)-ethambutol): 73.1%; ASP+ inhibition [%] (OCT3; OCT3, 2 μM ASP+): 33.7%
4 | CN(C)CCC[C@@]1(c2ccc(F)cc2)OCc2cc(C#N)ccc21 [(S)-Citalopram] | 10.7 |  |  |  | 80.1 | 37.2 | 77.6 |  | 19.2 | 31.7 | 10.9 | -9.7 | 68.6 | 26.5 | 0.154 | 
5 | C[n+]1ccc(-c2ccccc2)cc1 [MPP+, 1-methyl-4-phenylpyridinium] |  |  |  |  |  |  |  |  |  |  |  |  |  |  |  | vmax ± SEM [pmol × mg Protein−1 × min−1] (SERT): 627 pmol × mg Protein−1 × min−1; Km (SERT; read-out: Km ± SEM): 21.1 µM; Clint ± SEM (SERT; vmax over Km): 29.7; vmax ± SEM [pmol × mg Protein−1 × min−1] (DAT): 2107 pmol × mg Protein−1 × min−1; Km (DAT; read-out: Km ± SEM): 20.1 µM; Clint ± SEM (DAT; vmax over Km): 104; vmax ± SEM [pmol × mg Protein−1 × min−1] (NET): 381 pmol × mg Protein−1 × min−1; Km (NET; read-out: Km ± SEM): 2.5 µM; Clint ± SEM (NET; vmax over Km): 152
6 | B1 |  |  |  |  |  |  |  |  |  |  |  |  |  |  |  | Km [2]: 167 µM; Vmax [2]: 0.00235 µmol/min/mg
